Experimental data from PubChem BioAssay AID2060600 (Molecular Pharmacology Branch, DTP, NCI, 2025).
pIC50: −log10 of the molar value. Values joined by “and” are separate entries in the source; they are usually repeats but may differ in a detail not shown here. Identical values can stand only once.

Tested on: 996289-038-R-J1-PDC complex spheroid viability
Test: Anticancer human tumor 996289-038-R-J1-PDC patient-derived colon adenocarcinoma cell line growth inhibition [CLK]
Settings: for viability, T/C: stronger effect = lower value
Method in brief: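 Patient-derived tumor cells grown as complex spheroids with HUVEC endothelial cells and mesenchymal stem cells, treated with drug combinations. Concentrations descend in half-log steps from near clinical Cmax, or from 10 microM if Cmax unknown.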

[1] = curve of first compound, second compound 0.0316 µM
[2] = curve of first compound, second compound 0.1 µM
[3] = curve of first compound, second compound 0.316 µM
[4] = curve of first compound, second compound 1 µM
[5] = curve of first compound, second compound 3.16 µM
[6] = curve of first compound, second compound 10 µM
[7] = second compound 0.0316 µM, first compound 0.0316 µM
[8] = second compound 0.0316 µM, first compound 0.1 µM
[9] = second compound 0.0316 µM, first compound 0.316 µM
[10] = second compound 0.0316 µM, first compound 1 µM
[11] = second compound 0.0316 µM, first compound 3.16 µM
[12] = second compound 0.0316 µM, first compound 10 µM
[13] = second compound 0.1 µM, first compound 0.0316 µM
[14] = second compound 0.1 µM, first compound 0.1 µM
[15] = second compound 0.1 µM, first compound 0.316 µM
[16] = second compound 0.1 µM, first compound 1 µM
[17] = second compound 0.1 µM, first compound 3.16 µM
[18] = second compound 0.1 µM, first compound 10 µM
[19] = second compound 0.316 µM, first compound 0.0316 µM
[20] = second compound 0.316 µM, first compound 0.1 µM
[21] = second compound 0.316 µM, first compound 0.316 µM
[22] = second compound 0.316 µM, first compound 1 µM
[23] = second compound 0.316 µM, first compound 3.16 µM
[24] = second compound 0.316 µM, first compound 10 µM
[25] = second compound 1 µM, first compound 0.0316 µM
[26] = second compound 1 µM, first compound 0.1 µM
[27] = second compound 1 µM, first compound 0.316 µM
[28] = second compound 1 µM, first compound 1 µM
[29] = second compound 1 µM, first compound 3.16 µM
[30] = second compound 1 µM, first compound 10 µM
[31] = second compound 3.16 µM, first compound 0.0316 µM
[32] = second compound 3.16 µM, first compound 0.1 µM
[33] = second compound 3.16 µM, first compound 0.316 µM
[34] = second compound 3.16 µM, first compound 1 µM
[35] = second compound 3.16 µM, first compound 3.16 µM
[36] = second compound 3.16 µM, first compound 10 µM
[37] = second compound 10 µM, first compound 0.0316 µM
[38] = second compound 10 µM, first compound 0.1 µM
[39] = second compound 10 µM, first compound 0.316 µM
[40] = second compound 10 µM, first compound 1 µM
[41] = second compound 10 µM, first compound 3.16 µM
[42] = second compound 10 µM, first compound 10 µM
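Note: spheroids exposed to the agents for 7 days before readout.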

**Q.** With `COc1cccc2c1C(=O)c1c(O)c3c(c(O)c1C2=O)CC(O)(C(=O)CO)CC3OC1CC(N)C(O)C(C)O1` (stereo not drawn) + CNC(=O)c1ccc(Nc2nc(OC3CCCC3)c3c(-c4ccc5nc(C)oc5c4)c[nH]c3n2)c(OC)c1 as the compound, how does the pIC50 [1] read?
**A.** 5.35

**Q.** And the pIC50 [2]?
**A.** 5.67

**Q.** And the pIC50 [3]?
**A.** 6.01

**Q.** What about the pIC50 [4] of the same compound?
**A.** 6.76

**Q.** And the pIC50 [5]?
**A.** > 7.50

**Q.** And the pIC50 [6]?
**A.** 7.17

**Q.** And the viability, T/C [7]?
**A.** 119%

**Q.** And the viability, T/C [8]?
**A.** 98.7%

**Q.** What about the viability, T/C [9] of the same compound?
**A.** 87.5%

**Q.** And the viability, T/C [10]?
**A.** 68.8%

**Q.** And the viability, T/C [11]?
**A.** 59.9%

**Q.** What about the viability, T/C [12] of the same compound?
**A.** 36%

**Q.** What about the viability, T/C [13] of the same compound?
**A.** 104%

**Q.** What about the viability, T/C [14] of the same compound?
**A.** 110%

**Q.** And the viability, T/C [15]?
**A.** 79.7%

**Q.** And the viability, T/C [16]?
**A.** 59.9%

**Q.** What about the viability, T/C [17] of the same compound?
**A.** 50%

**Q.** And the viability, T/C [18]?
**A.** 28.7%

**Q.** What about the viability, T/C [19] of the same compound?
**A.** 75.3%

**Q.** And the viability, T/C [20]?
**A.** 73.4%

**Q.** And the viability, T/C [21]?
**A.** 63.1%

**Q.** And the viability, T/C [22]?
**A.** 51%

**Q.** And the viability, T/C [23]?
**A.** 31%

**Q.** And the viability, T/C [24]?
**A.** 18.5%

**Q.** What about the viability, T/C [25] of the same compound?
**A.** 64.8%

**Q.** And the viability, T/C [26]?
**A.** 56.6%

**Q.** What about the viability, T/C [27] of the same compound?
**A.** 42.2%

**Q.** What about the viability, T/C [28] of the same compound?
**A.** 28.1%

**Q.** And the viability, T/C [29]?
**A.** 14.3%

**Q.** And the viability, T/C [30]?
**A.** 10.3%

**Q.** What about the viability, T/C [31] of the same compound?
**A.** 49.3%

**Q.** What about the viability, T/C [32] of the same compound?
**A.** 48.2%

**Q.** What about the viability, T/C [33] of the same compound?
**A.** 38.5%

**Q.** What about the viability, T/C [34] of the same compound?
**A.** 19.5%

**Q.** And the viability, T/C [35]?
**A.** 10.3%

**Q.** What about the viability, T/C [36] of the same compound?
**A.** 7.76%

**Q.** What about the viability, T/C [37] of the same compound?
**A.** 53.1%

**Q.** What about the viability, T/C [38] of the same compound?
**A.** 47.6%

**Q.** What about the viability, T/C [39] of the same compound?
**A.** 36.6%

**Q.** And the viability, T/C [40]?
**A.** 18.1%

**Q.** What about the viability, T/C [41] of the same compound?
**A.** 8.69%

**Q.** What about the viability, T/C [42] of the same compound?
**A.** 7.86%

**Q.** Which results are given for `CC(CO)NC(=O)c1cc(-c2ccc(Cl)cc2)nn(-c2cnn(C)c2)c1=O` (stereo not drawn) + CNC(=O)c1ccc(Nc2nc(OC3CCCC3)c3c(-c4ccc5nc(C)oc5c4)c[nH]c3n2)c(OC)c1?
**A.** pIC50 [1]: < 5.00; pIC50 [2]: < 5.00; pIC50 [3]: < 5.00; pIC50 [4]: < 5.00; pIC50 [5]: < 5.00; pIC50 [6]: < 5.00; viability, T/C [7]: 117%; viability, T/C [8]: 111%; viability, T/C [9]: 108%; viability, T/C [10]: 117%; viability, T/C [11]: 109%; viability, T/C [12]: 99.6%; viability, T/C [13]: 131%; viability, T/C [14]: 113%; viability, T/C [15]: 116%; viability, T/C [16]: 95.4%; viability, T/C [17]: 101%; viability, T/C [18]: 83.7%; viability, T/C [19]: 79.8%; viability, T/C [20]: 76.9%; viability, T/C [21]: 73.2%; viability, T/C [22]: 71.4%; viability, T/C [23]: 72.7%; viability, T/C [24]: 68.9%; viability, T/C [25]: 64.2%; viability, T/C [26]: 63.7%; viability, T/C [27]: 57.8%; viability, T/C [28]: 57.5%; viability, T/C [29]: 57.5%; viability, T/C [30]: 49%; viability, T/C [31]: 58.2%; viability, T/C [32]: 57.6%; viability, T/C [33]: 55.3%; viability, T/C [34]: 54.7%; viability, T/C [35]: 56.9%; viability, T/C [36]: 48.3%; viability, T/C [37]: 52.4%; viability, T/C [38]: 56.9%; viability, T/C [39]: 56.2%; viability, T/C [40]: 58.5%; viability, T/C [41]: 55.5%; viability, T/C [42]: 44.8%

**Q.** What does the source list for `COc1ccc([C@@H](O)c2cc(-c3ncnc4cc(N5CCOCC5)ccc34)c(F)cc2Cl)nn1`?
**A.** viability, T/C (compound 0.0316 µM): 102%; viability, T/C (compound 0.1 µM): 92.7% and 88.9%; viability, T/C (compound 0.316 µM): 101% and 90.7%; viability, T/C (compound 1 µM): 93.3% and 87.7%; viability, T/C (compound 3.16 µM): 77.5% and 79.5%; viability, T/C (compound 10 µM): 50.1% and 52.1%; pIC50 (curve of compound): < 5.00

**Q.** `C=CC(=O)N1CCN(c2nc(=O)n(-c3c(C)ccnc3C(C)C)c3nc(-c4c(O)cccc4F)c(F)cc23)C(C)C1` (stereo not drawn) + CN1CCN(c2cc(C(=O)Nc3cc4cc(-c5cnn(C)c5)ccc4cn3)ccn2)CC1 was tested. Which pIC50 [1] did it give?
**A.** < 5.00

**Q.** What about the pIC50 [2] of the same compound?
**A.** < 5.00

**Q.** What about the pIC50 [3] of the same compound?
**A.** < 5.00

**Q.** What about the pIC50 [4] of the same compound?
**A.** > 7.50

**Q.** What about the pIC50 [5] of the same compound?
**A.** > 7.50

**Q.** And the pIC50 [6]?
**A.** > 7.50

**Q.** What about the viability, T/C [7] of the same compound?
**A.** 112%

**Q.** What about the viability, T/C [8] of the same compound?
**A.** 111%

**Q.** And the viability, T/C [9]?
**A.** 111%

**Q.** And the viability, T/C [10]?
**A.** 104%

**Q.** What about the viability, T/C [11] of the same compound?
**A.** 114%

**Q.** And the viability, T/C [12]?
**A.** 109%

**Q.** What about the viability, T/C [13] of the same compound?
**A.** 97.5%

**Q.** What about the viability, T/C [14] of the same compound?
**A.** 102%

**Q.** And the viability, T/C [15]?
**A.** 91.6%

**Q.** What about the viability, T/C [16] of the same compound?
**A.** 103%

**Q.** What about the viability, T/C [17] of the same compound?
**A.** 102%

**Q.** And the viability, T/C [18]?
**A.** 99.3%

**Q.** What about the viability, T/C [19] of the same compound?
**A.** 80.5%

**Q.** And the viability, T/C [20]?
**A.** 73.1%

**Q.** What about the viability, T/C [21] of the same compound?
**A.** 74.2%

**Q.** And the viability, T/C [22]?
**A.** 82.5%

**Q.** What about the viability, T/C [23] of the same compound?
**A.** 85.3%

**Q.** And the viability, T/C [24]?
**A.** 77.7%

**Q.** What about the viability, T/C [25] of the same compound?
**A.** 8.05%

**Q.** And the viability, T/C [26]?
**A.** 7.07%

**Q.** What about the viability, T/C [27] of the same compound?
**A.** 9.28%

**Q.** What about the viability, T/C [28] of the same compound?
**A.** 8.41%

**Q.** What about the viability, T/C [29] of the same compound?
**A.** 10.3%

**Q.** And the viability, T/C [30]?
**A.** 6.56%

**Q.** And the viability, T/C [31]?
**A.** 1.21%

**Q.** And the viability, T/C [32]?
**A.** 1.63%

**Q.** What about the viability, T/C [33] of the same compound?
**A.** 1%

**Q.** What about the viability, T/C [34] of the same compound?
**A.** 1.24%

**Q.** What about the viability, T/C [35] of the same compound?
**A.** 1.69%

**Q.** And the viability, T/C [36]?
**A.** 1.89%

**Q.** And the viability, T/C [37]?
**A.** 0.33%

**Q.** And the viability, T/C [38]?
**A.** 1.03%

**Q.** What about the viability, T/C [39] of the same compound?
**A.** 0.3%

**Q.** What about the viability, T/C [40] of the same compound?
**A.** 0.75%

**Q.** And the viability, T/C [41]?
**A.** 0.42%

**Q.** What about the viability, T/C [42] of the same compound?
**A.** 1.33%
